# Patent US12102695B2, “Half-curcuminoids as amyloid-beta pet imaging agents” (The General Hospital Corporation, priority 2016, dated 2024)
# Assays:
# Aβ40 aggregates = biological target: T1, Aβ40 aggregates (Homo sapiens, UniProt P05067); experiment: Binding constant (Kd) by fluorescence, Aβ aggregates; settings: PBS pH 7.4
# T1 construct: Synthetic Aβ peptides (1-40/42) were purchased from rPeptide; purchased rPeptide (Bogart, Ga.); host or cells: synthetic peptide
# Description: (§1) Starting materials and solvents used in the Examples were purchased from commercial vendors and used without further purification, unless otherwise noted. The pH of the PBS buffer was 7.4. Column chromatography was performed on silica gel (SiliCycle Inc., 60 Å, […]) slurry packed into glass columns. Synthetic Aβ peptides (1-40/42) were purchased from rPeptide (Bogart, Ga., 30622). Aggregates for in vitro studies were generated by the slow stirring of Aβ40 in PBS buffer for 3 days at room temperature. CRANAD-101F (Example 1) was dissolved in DMSO to prepare a 25.0 μM stock solution. ^1H and ^13C NMR spectra were recorded at […] and 125 MHz, respectively, and reported in ppm downfield from tetramethylsilane (TMS). Fluorescence measurements were performed using an F-4500 fluorescence spectrophotometer (Hitachi). […]
# (§2) To record the fluorescence response of CRANAD-101 with Aβs, the following procedure was used. Step 1: 1.0 mL of PBS buffer was added to a quartz cuvette as a blank control and its fluorescence was recorded with the same parameters as for CRANAD-101. Step 2: The fluorescence emission spectrum of a CRANAD-101 solution (1.0 mL, 250 nM) was recorded with excitation at 420 nm and emission from 450 to 800 nm. […] The emission spectra was recorded (Excitation=420 nm, Emission=450-800 nm). […]
# [1] = system: Aβs, including monomers, dimers, oligomers, and aggregates; experiment: Fluorescence spectral testing with Aβs; assay type: binding; settings: probe 250 nM, Aβ 250 nM, PBS, excitation 420 nm, FIG. 2
# Description: (§3) To record the fluorescence response of CRANAD-101 with Aβs, the following procedure was used. Step 1: 1.0 mL of PBS buffer was added to a quartz cuvette as a blank control and its fluorescence was recorded with the same parameters as for CRANAD-101. Step 2: The fluorescence emission spectrum of a CRANAD-101 solution (1.0 mL, 250 nM) was recorded with excitation at 420 nm and emission from 450 to 800 nm. Step 3: To the CRANAD-101 solution from Step 2, 10 μL Aβs (25 μM) was added (final concentration 250 nM). The emission spectra was recorded (Excitation=420 nm, Emission=450-800 nm). The final spectra from Steps 2 and 3 were corrected using the blank control from Step 1.
# (§4) The emission peak of CRANAD-101 was approximately 550 nm, and its excitation peak was approximately 420 nm. To confirm whether CRANAD-101 was responsive to Aβs, including monomers, dimers, oligomers, and aggregates, PBS buffer was used as a blank, CRANAD-101 (250 nM, final concentration) was added in PBS buffer and the fluorescence intensity was recorded. Next, Aβ monomer (250 nM, final concentration) was added, and the fluorescence intensity was recorded. The same procedure was then performed for Aβ dimers, Aβ oligomers, and Aβ aggregates. The binding constant (Kd) of CRANAD-101 was also measured for Aβs.
# [2] = Fluorescence spectrum of the probe; assay type: physicochemical
# Description: as §3, §4
# Aβ42 dimers = biological target: T2, Aβ42 dimers (Homo sapiens, UniProt P05067); experiment: Binding constant (Kd) by fluorescence, Aβ42 dimers; settings: PBS pH 7.4
# T2 construct: Synthetic Aβ peptides (1-40/42) were purchased from rPeptide; purchased rPeptide (Bogart, Ga.); host or cells: synthetic peptide
# T2 sequence (P05067 672-713 limits assumed): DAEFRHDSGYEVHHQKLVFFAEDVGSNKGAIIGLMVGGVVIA
# Description: as §1, §2
# Aβ42 monomers = biological target: T3, Aβ42 monomers (Homo sapiens, UniProt P05067); experiment: Binding constant (Kd) by fluorescence, Aβ42 monomers; settings: PBS pH 7.4
# T3 construct: Synthetic Aβ peptides (1-40/42) were purchased from rPeptide; purchased rPeptide (Bogart, Ga.); host or cells: synthetic peptide
# T3 sequence (P05067 672-713 limits assumed): as above
# Description: as §1, §2
# [3] = Two-photon microscopic imaging of wild type mouse (BBB penetration); assay type: in vivo; settings: WT mouse
# Description: (§5) To investigate whether CRANAD-101 was capable of penetrating brain blood barrier (BBB), two-photon microscopic imaging was conducted using a 15-month old wild type (WT) mouse. A mouse ([…]) was anesthetized with Ketamine/xylazine (70 mg/kg) and a cranial imaging window was surgically prepared. CRANAD-101 (2.0 mg/kg in a fresh solution containing 15% CREMOPHOR EL®, 15% DMSO and 70% PBS) was injected intravenously at time=0 min by a bolus injection during image acquisition. Two-photon fluorescence excitation was performed with a 900-nm laser (Prairie Ultima). Imaging was performed using a two-photon microscope (Prairie Technologies) equipped with a 20× water immersion objective (N.A. 1.0, Zeiss). Images were collected for 15 seconds per frame 512×512 μm matrix for 45 min with a green (500-550 nm) channel.
# diffusible Aβ deposits = experiment: Fluorescence microscopy of AD patient brain slice; set-up: species or system human; settings: FIG. 3D
# Aβ = experiment: In vivo PET imaging, 14-month old APP/PS1 and WT mice; set-up: species or system mouse; settings: i.v.
# Description: In vivo PET imaging was conducted with 14-month old APP/PS1 mice (Charles River Laboratories, MA) and age-matched wild-type (WT) mice. Mice were injected via tail-vein with 100 μL of 20-30 μCi of [^18F]CRANAD-101 (Example 2) in 10% ethanol saline. MicroPET imaging experiments were performed on a Sophie Biosciences microPET G4 scanner (Culver City, Calif., USA). 60-Minute dynamic imaging was performed under general anesthesia (isoflurane/O2). Imaging analysis was conducted with Amide.
# In vivo PET imaging was conducted with 14-month old APP/PS1 mice and age-matched WT mice. Mice were injected (i.v.) with 100 μL of 20-30 μCi of [^18F]CRANAD-101 in 10% ethanol saline. The specific activity was determined to be […] at the time of injection.
# [4] = system: Aβ plaques and cerebral amyloid angiopathy (CAA); experiment: Two-photon microscopic imaging of APP/PS1 mouse; assay type: in vivo; settings: 15-month old APP/PS1 mouse, FIG. 5B
# Description: as §5
# The accumulation of CRANAD-101 in the brain reached a peak at 10 minutes after i.v. injection (FIG. 5C, panel f). To examine whether CRANAD-101 could label Aβ plaques and cerebral amyloid angiopathy (CAA) in vivo, a similar two-photo microscopic imaging procedure was performed with a 15-month old APP/PS1 mouse.
# Aβ plaques = experiment: Brain slice testing, fluorescence microscopy of APP/PS1 mouse brain slice; settings: 11-month old APP/PS1 mouse slice, 25 μM, 30 minutes, FIG. 3A
# Description: A brain slice of 11-month old APP/PS1 mouse was washed with double-distilled water for 5 minutes, then fixed with 4% formalin for 5 minutes, and washed with double-distilled water. First, a background image of a brain slice was taken using a fluorescence microscope. Next, an image was taken after the slice was incubated with CRANAD-101 (25 μM) for 30 minutes.
# Aβ42 oligomers = biological target: T4, Aβ42 oligomers (Homo sapiens, UniProt P05067); experiment: Binding constant (Kd) by fluorescence, Aβ42 oligomers; settings: PBS pH 7.4
# T4 construct: Synthetic Aβ peptides (1-40/42) were purchased from rPeptide; purchased rPeptide (Bogart, Ga.); host or cells: synthetic peptide
# T4 sequence (P05067 672-713 limits assumed): as above
# Description: as §1, §2
# T1 sequence (P05067 672-711 limits assumed): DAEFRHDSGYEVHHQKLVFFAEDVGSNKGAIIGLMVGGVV
smiles,measurement,setting,value
"Cc1nn(-c2ccc(OCCCF)cc2)cc1C=CC1=CC(C2CCC2)=[O+][B-](F)(F)O1 [CRANAD-101, (E)-4-(2-(6-cyclobutyl-2,2-difluoro-2H-1,3,2^4-dioxaborinin-4-yl)vinyl)-1-(4-(3-fluoropropoxy)phenyl)-3-methyl-1H-pyrazole]",Kd,Aβ40 aggregates,188 ± 104 nM
same,fluorescence response to Aβs,[1],strong responses to Aβs
same,emission peak,[2],approximately 550 nm
same,excitation peak,[2],approximately 420 nm
same,Kd,Aβ42 dimers,44 ± 18.9 nM
same,Kd,Aβ42 monomers,11.6 ± 11 nM
same,crossing of the BBB,"[3]; 2.0 mg/kg i.v., two-photon, FIG. 5A, 5C",quickly crossed the BBB
same,time of peak accumulation in the brain,"[3]; after i.v. injection 2.0 mg/kg, FIG. 5C panel f",10 min
same,staining of Aβ deposits in AD patient brain slice,diffusible Aβ deposits,can stain diffusible Aβ deposits
same,penetration of the blood-brain barrier and brain accumulation vs other reported 18F labeled curcumin analogues,Aβ,much higher penetration of the blood-brain barrier (BBB) and brain accumulation
same,labelling of Aβ plaques and CAA in vivo,[4],clearly highlighted Aβ plaques and CAAs
same,staining of Aβ plaques in brain slice,Aβ plaques,Aβ plaques could be imaged after the incubation
same,Kd,Aβ42 oligomers,780 ± 173 nM
